The values below come from PubChem BioAssay (NCI).

Common to all, as to experiment: NCI-60 cell line screen, 48 h
The test system of assay [1] is ACHN renal.
Assay [2] relates to EKVX NSCLC.
Assay [3] concerns M14 melanoma.
Assay [4] has as its system MALME-3M melanoma.
Assay [5] concerns NCI-H23 lung.
Assay [6] relates to NCI-H460 lung.
Assay [7] has as its system RPMI-8226 leukemia.
Assay [8] relates to SF-268 CNS.
The test system of assay [9] is SNB-19 CNS.
Assay [10] relates to DU-145 prostate.
The subject of assay [11] is PC-3 prostate.
In assay [12] the test system is NCI/ADR-RES ovarian.

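Values below derive from 48-hour exposures of cells grown in 96-well plates, with endpoints linearly interpolated between the two concentrations bracketing the appropriate inhibition level. Abbreviation: GI50, concentration required for 50% inhibition of growth. TGI denotes the concentration required for complete inhibition of growth.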

As for `CCOc1ccc(N=Cc2cc(OC)c(OC)c(OC)c2)cc1`, the TGI in assay [1], in assay [2], in assay [3], in [4], in assay [5] and in assay [6] was above 100 µM each time. For the same compound, the TGI in [7] is 45.1 µM; in assay [8], above 100 µM; in [9], above 100 µM.

For the compound `CC(C)(C)C1CCC2c3c([nH]c4ccccc34)C3C(=O)N(c4ccc(Br)cc4)C(=O)C3C2C1` (stereo not drawn), the TGI in assay [1] is 35.7 µM; in assay [2], 63.2 µM; in assay [3] it was above 100 µM; in [4] it was above 100 µM; in [5], 38.1 µM; in [6], 38.9 µM. The TGI in [7] is 38.6 µM; in assay [8], 49.8 µM; in assay [9], 40 µM.

Turning to `COc1ccc(C2=C(OC(C)=O)c3cccn3-c3ccccc3S2)cc1`, the TGI is above 10 µM in assay [10]; above 10 µM in assay [3]; above 10 µM in [4]; 7.73 µM in assay [5]; above 10 µM in assay [11]; above 10 µM in assay [7]. Besides, in assay [8], the TGI is above 10 µM.

For the compound `CCN(CC)CC(C)(C)C(=O)/C=C/c1ccc(C)cc1`, the TGI in assay [1] worked out at 27.9 µM; in assay [2] it was 16.9 µM; in assay [3], 25 µM; in [4] it was 21.7 µM; in assay [6], 19.4 µM; in [8] it was 22.1 µM. In [9], this compound registered a TGI of 25 µM.

In the case of `O=[N+]([O-])C(=C1Nc2ccccc2N1)C(Cl)=C(Cl)Cl`, the TGI in assay [1], in assay [10], in [2], in assay [3], in assay [4] and in assay [5] was above 100 µM in each case. The TGI in [6], in assay [11], in assay [7], in [8] and in assay [9] was above 100 µM throughout.

Take `N#Cc1c(N2CCOCC2)ncn(-c2ccccc2)c1=O`: the TGI in assay [1], in assay [10], in assay [2], in [3], in assay [5] and in [6] was above 100 µM throughout. The TGI in assay [12], in assay [11], in assay [7] and in assay [9] was above 100 µM in each case.

Take `CC(C)CCNC(=O)c1ccc(CNC(=O)/C=C/c2ccc(-c3ccccc3[N+](=O)[O-])o2)cc1`: the TGI in assay [1], in assay [10], in assay [3], in [5], in assay [6] and in assay [12] was above 100 µM throughout. For the same compound, the TGI in [11] is above 100 µM; in assay [7] it was above 100 µM; in [8], 63.1 µM; in [9], above 100 µM.

Turning to `CC(C)(C)OC(=O)C1/C(=C/CO)CN1C(=O)OC(C)(C)C` (stereo not drawn), the TGI in [1], in assay [2], in assay [3], in assay [4], in [5] and in [6] was above 100 µM throughout. Further, the TGI in assay [12], in assay [11], in [7], in [8] and in assay [9] was above 100 µM each time.

As to `Cc1[nH]n(-c2ccccc2)c(=S)c1C(=O)c1ccccc1`, the TGI was above 100 µM in assay [1]; 54.9 µM in assay [2]; 93.7 µM in assay [3]; above 100 µM in assay [4]; above 100 µM in [5]; 50.2 µM in assay [7]. Besides, the TGI in [8] and in assay [9] was above 100 µM in each case.

For the compound `CCC(C)(C)NC1=C(NC(C)=O)C(=O)c2ccccc2C1=O`, the TGI in assay [1] is 43.2 µM; in assay [2], above 75 µM; in assay [3] it was above 75 µM; in assay [4], above 75 µM; in [5], 73.7 µM; in assay [6] it was above 75 µM. Further, the TGI in [8] and in assay [9] was above 75 µM throughout.

As to `CCCCc1ccc(Nc2nc(Cl)c3[nH]cnc3n2)cc1`, the TGI is above 100 µM in [1]; 61.8 µM in assay [10]; above 100 µM in assay [2]; 41.5 µM in assay [3]; 42.2 µM in [4]; 33.9 µM in assay [5]. In addition, the TGI in assay [12] is 47.7 µM; in [7], above 100 µM; in assay [8], 59.9 µM; in [9], 43.5 µM.

As for `C[n+]1c2ccccc2c(NC(CCC(N)=O)C(=O)O)c2ccccc21` (stereo not drawn), the TGI in assay [1], in [2], in assay [3], in assay [4], in assay [5] and in [6] was above 100 µM each time. The TGI in assay [7], in assay [8] and in assay [9] was above 100 µM throughout.

Turning to `CCNC1CC(C(C)(C)NCC)CC=C1C` (stereo not drawn), the TGI in assay [10], in [2], in assay [3], in [5], in assay [6] and in assay [12] was above 100 µM each time. Besides, the TGI in assay [11], in [8] and in assay [9] was above 100 µM each time.

Take `Cc1ccc(N2C(=O)/C(=c3\s/c(=C(/N)O)c(=N)n3-c3ccccc3)SC2=S)cc1`: the TGI in assay [1], in assay [5], in assay [6], in assay [7], in [8] and in [9] was above 100 µM throughout.

Take `Nc1nc(=O)n(C2OC(CO)C(O)C2O)cc1F` (stereo not drawn): the TGI was above 40.9 µM in assay [2]; above 100 µM in assay [5]; above 100 µM in [12]; above 100 µM in assay [7]; above 100 µM in assay [8]; above 100 µM in assay [9].

Consider `Clc1ccc2c(NCCNc3nc(-c4ccccc4)cc(-c4ccccc4)n3)ccnc2c1`, for which the GI50 in assay [1] is 1.7 µM; in assay [10], 1.79 µM; in [3] it was 1.71 µM; in assay [5] it was 1.87 µM; in assay [12], 1.77 µM; in assay [11], 1.88 µM. Moreover, the GI50 in assay [7] is 2.19 µM. Further, the TGI in [1] was found to be 3.1 µM; in [10] it was 3.45 µM; in assay [3], 3.16 µM; in assay [5], 3.8 µM; in [12], 3.6 µM; in assay [11], 3.44 µM. Moreover, the TGI in [7] was 5.1 µM.

Take `Cc1cccc(C)c1NC(=S)/N=C/C1=C(O)c2ccccc2C1=O`: the TGI was above 100 µM in assay [1]; above 100 µM in [10]; above 94.4 µM in [2]; above 100 µM in assay [3]; 59.2 µM in assay [5]; above 100 µM in assay [6]. Further, the TGI in [12] is above 100 µM; in assay [11] it was above 100 µM; in assay [7], 31 µM; in assay [8], above 100 µM; in assay [9], above 100 µM.

In the case of `CC1=NN(C(=O)c2ccc(Cl)cc2)C(=O)/C1=C/c1cccc(O)c1`, the TGI in assay [1], in [2], in [3], in assay [4], in assay [5] and in assay [6] was above 100 µM in each case. In addition, the TGI in [7], in assay [8] and in assay [9] was above 100 µM throughout.

Regarding `Cc1ccc2c(c1)NC(=O)C(N=[N+]=[N-])(c1ccccc1)C2=O` (stereo not drawn), the TGI is above 100 µM in [1]; 95.3 µM in assay [2]; 33 µM in assay [3]; 71.6 µM in [4]; 45.9 µM in [5]; above 100 µM in [6]. Also, the TGI in assay [8] was above 100 µM; in assay [9], 98.1 µM.

With `C=CCSc1nn(CC=C)cc2ncnc1-2`, the TGI in [1], in [10], in [2], in assay [3], in assay [5] and in [6] was above 100 µM in each case. Besides, the TGI in assay [12], in [11], in [7], in [8] and in [9] was above 100 µM each time.

Regarding `COc1cc2cc(C(=O)N3CC(COS(C)(=O)=O)c4c3cc([N+](=O)[O-])c3ccccc43)[nH]c2c(OC)c1OC` (stereo not drawn), the TGI in assay [1] is above 31.6 µM; in [10] it was above 22.4 µM; in assay [2], above 31.6 µM; in [3], above 31.6 µM; in assay [5], above 31.6 µM; in assay [6] it was above 31 µM. Besides, the TGI in [12], in assay [11], in assay [7], in assay [8] and in assay [9] was above 31.6 µM in each case.

On to `Cc1cc2c3c(ccc4ncc(c43)CN2c2ccc(NS(C)(=O)=O)cc2)[nH]1`, for which the TGI in [1], in [10], in assay [2], in [3], in [5] and in assay [6] was above 100 µM throughout. The TGI in assay [12] is above 100 µM; in assay [11], above 100 µM; in [7], 55.3 µM; in assay [8], 51.5 µM; in assay [9], 10.4 µM.

`c1ccc2cc3n[se]nc3cc2c1`: the TGI in assay [1], in assay [2], in [3], in assay [4], in [5] and in assay [7] was above 100 µM throughout. The TGI in assay [8] and in assay [9] was above 100 µM in each case.

On to `COc1cc(/C=C2\NC(=O)N(/C=C3\C(=O)Oc4ccccc4C3=O)C2=O)ccc1O`, for which the TGI in [1], in assay [10], in [2], in [3], in assay [5] and in assay [6] was above 100 µM throughout. Besides, the TGI in assay [12], in assay [11], in assay [7], in assay [8] and in assay [9] was above 100 µM throughout.

On to `CN1c2ccccc2C2c3c(O)ccc(O)c3C=C([N+](=O)[O-])C21` (stereo not drawn), for which the TGI in [1] was 1.97 µM; in assay [2], 7.63 µM; in assay [3], 1.44 µM; in assay [5], 5.61 µM; in [6], 6.02 µM; in [12] it was above 20 µM. The TGI in [11] amounted to 4.79 µM; in assay [8] it was 6.54 µM; in assay [9], 2.03 µM.

With `Cc1c2n(c3ccccc13)CC1C2N(C)OC1(C)C` (stereo not drawn), the TGI in assay [1], in assay [2], in [3], in [4], in [5] and in assay [6] was above 100 µM in each case. Besides, the TGI in assay [7], in [8] and in [9] was above 100 µM throughout.

Take `C=CCC1(O)c2cccc(O)c2C(=O)c2c(O)cccc21`: the TGI in assay [1] was above 100 µM; in [10], above 100 µM; in assay [2] it was 92.2 µM; in assay [3], 59.3 µM; in [5], 56.9 µM; in assay [6] it was above 100 µM. Moreover, the TGI in assay [12] was 43 µM; in assay [11] it was 88 µM; in assay [7], above 100 µM; in assay [8], above 100 µM.

Turning to `CC1C(c2ccccc2O)c2cc3c(cc2OC1N1CCCC1)OCO3` (stereo not drawn), the TGI in assay [1] is above 100 µM; in assay [10] it was above 100 µM; in assay [2], above 100 µM; in assay [3] it was 36.8 µM; in [4], 80.2 µM; in assay [5], above 100 µM. Besides, the TGI in [6] is 32.4 µM; in [11] it was 98.8 µM; in assay [7] it was 57.5 µM; in assay [8] it was above 100 µM; in [9], above 100 µM.
